Assay results taken from patent US20100041617A1, “Modulating mxa expression” (priority 2004, published 2010).

Assays:
Type in all cases: cell-based, human
MxA promoter = assay: MxA promoter-luciferase reporter screen in stably transfected PC-3M cells; conditions: for Fold Increase in MxA Expression: MxA promoter-luciferase reporter in PC-3M cells, Control = 1.00; for expression of luciferase from the MxA promoter: PC-3M cells, DTP 1900 chemotype library screen, FIG. 8
Description: FIG. 7 outlines the high-throughput screen used for identifying small molecules that induce MxA expression. The MxA promoter was cloned upstream of luciferase, and transfected it into PC-3M human prostate carcinoma cells. A cell line that stably expressed this promoter-reporter construct was isolated. This cell line was used for testing whether test agents could induce MxA expression by screening for increased luciferase expression using a library of 1900 chemotypes. Interferon-α was a positive control for this assay. To develop a reporter system for drug screening, particularly for a high throughput assay procedure, the MxA promoter was cloned upstream of a nucleic acid segment that encoded luciferase (see FIG. 7). A nucleic acid encoding a eukaryotic selection marker (neomycin) was also inserted in the vector used for the reporter cassette. After transfecting this construct into human prostate carcinoma cells, a cell line that stably maintained the MxA reporter gene was cloned. Test agents, including a library of small molecules (the DTP 1900 chemotype library) were screened to ascertain whether any of the test agents increased luciferase expression. Of the 1900 compounds tested, 5 compounds activated the MxA promoter and increased luciferase expression. […] Methods similar to those described in Example 4 were used to identify compounds that activate MxA expression.

MxA protein [1] = assay: Induction of MxA protein expression in PC-3-M prostate cancer cells by compounds; conditions: FIG. 9
Protocol: The five compounds that induced luciferase expression from the MxA were then tested to ascertain whether these compounds could also induce MxA protein expression and inhibit motility of PC-3-M prostate cancer cells. Each of the compounds could do so (FIGS. 9 and 10).

PC-3M cells = assay: Cell migration (motility) assay through pores of a PET membrane, PC-3M cells; conditions: for motility of PC-3M cells: FIG. 10
Protocol: Effect of MxA on motility of PC-3M. […] It has been reported that type I IFN could reduce cell motility (Brouty-Boyé and Zetter, 1980), one component of metastasis. To test whether PC-3 and PC-3M cells differed in motility, these two cell lines were subjected to a cell migration assay that measured the ability of cells to migrate through pores in a polyethylene terephthalate (PET) membrane. The five compounds that induced luciferase expression from the MxA were then tested to ascertain whether these compounds could also induce MxA protein expression and inhibit motility of PC-3-M prostate cancer cells. Each of the compounds could do so (FIGS. 9 and 10).

MxA protein [2] = assay: MxA protein induction by IFN-α, anti-MxA immunostaining, PC-3 cells; conditions: 24 hours, 1000 international units of IFN-α per ml, FIG. 2A
Protocol: (§1) PC-3 (Figure A1-4) and PC-3M (FIG. 2B) cells were grown for 24 hours on cover slips in the presence or absence of 1000 international units of IFN-α ml^1. The cells were then fixed, permeabilized, stained with monoclonal anti-MxA and Cy-3-conjugated goat anti-mouse Ig antibody and counterstained with DAPI. Immunofluorescence was visualized with a Zeiss Axiophot microscope with a 40× objective, and the images were captured on an Optronics CCD camera.
(§2) Induction of MxA expression by interferon. To determine whether IFN-α can induce MxA expression in PC-3 and PC-3M cells, cells were treated with recombinant IFN-α and subjected to immunohistochemical analysis using anti-MxA antibody and DAPI nuclear counterstaining to locate individual cells (FIG. 2). Consistent with the western blot result, this assay detected MxA protein only in untreated PC-3 and not in untreated PC-3M cells (compare upper left panels in FIGS. 2A and 2B). […] Western blotting (not shown) confirmed the IFN did induce increased MxA protein expression in both cell lines.

MxA protein [3] = assay: MxA protein induction by IFN-α, anti-MxA immunostaining, PC-3M cells; conditions: 24 hours, 1000 international units of IFN-α per ml, FIG. 2B
Protocol: as §1, §2

PC-3 cells = assay: Cell migration (motility) assay through pores of a PET membrane, PC-3 cells; conditions: 1000 IU ml^−1 IFN-α, FIG. 3A
Description: FIG. 3A graphically illustrates the motility of PC-3M and PC-3 cells, before and after exposure to 1000 IU ml^−1 IFN-α. Mean values of percent of control PC-3M mobility are shown as bar graphs with mean percentages indicated above each bar. Each value represents the mean of two independent triplicate determinations. Error bars show range of determinations.
Effect of MxA on motility of PC-3M. […] It has been reported that type I IFN could reduce cell motility (Brouty-Boyé and Zetter, 1980), one component of metastasis. To test whether PC-3 and PC-3M cells differed in motility, these two cell lines were subjected to a cell migration assay that measured the ability of cells to migrate through pores in a polyethylene terephthalate (PET) membrane.

CC(C)CCc1c(Cl)nc(Cl)nc1Cl [Compound 2]
Fold Increase in MxA Expression (MxA promoter): 1.03 fold

O=S(=O)(c1cccc(N=C=S)c1)c1cccc(N=C=S)c1 [Compound 3]
Fold Increase in MxA Expression (MxA promoter): 1.11 fold

CN1CCN(CCNc2ccc(CO)c3sc4ccccc4c(=O)c23)CC1 [Compound 4]
Fold Increase in MxA Expression (MxA promoter): 1.32 fold

CCCS(=O)(=O)Nc1ccc(Nc2c3ccccc3nc3ccccc23)c(OC)c1.CS(=O)(=O)O [Compound 6]
Fold Increase in MxA Expression (MxA promoter): 3.65 fold

Cc1cc(=O)oc2cc(OC(=O)Nc3ccc(Cl)c(Cl)c3)ccc12 [Compound 7]
Fold Increase in MxA Expression (MxA promoter): 1.18 fold

COc1cc2c3c(n(C)c(=O)c2cc1OC)-c1cc2c(cc1C3=O)OCO2 [Compound 8]
Fold Increase in MxA Expression (MxA promoter): 1.71 fold

COC1CC(C)C(OC)c2cc(O)cc(c2O)NC(=O)/C(C)=C\C=C/C(C)C(OC(N)=O)/C(C)=C\C(C)C1OC (stereo not drawn) [Compound 10]
Fold Increase in MxA Expression (MxA promoter): 0.40 fold

CS(=O)(=O)CS(=O)(=O)OCCCl [Compound 11]
Fold Increase in MxA Expression (MxA promoter): 1.11 fold

CO[C@H]1[C@H](O)[C@@H](O)[C@H](n2c3c(Cl)cccc3c3c4c(c5c6cccc(Cl)c6[nH]c5c32)C(=O)NC4=O)O[C@@H]1CO [Compound 12]
Fold Increase in MxA Expression (MxA promoter): 1.46 fold

COc1cc2c(cc1OC)C1C(=O)c3cc(OS(C)(=O)=O)c(OC)cc3C1N(C)C2=O (stereo not drawn) [Compound 13]
Fold Increase in MxA Expression (MxA promoter): 2.15 fold

CCN(CC)CCCNc1nccc2c(C)c3[nH]c4ccncc4c(=O)c3cc12 [Compound 15]
Fold Increase in MxA Expression (MxA promoter): 2.15 fold

COC1C(O)C(C)OC(OC2C(Oc3cccc4c(O)c5c(=O)oc6ccc(C)c7c(=O)oc(c34)c5c67)OC(C)C3O[C@H](c4ccccc4)OC32)C1O (stereo partly drawn) [Compound 16]
Fold Increase in MxA Expression (MxA promoter): 2.25 fold

N/N=C(/C(=O)Nc1cccc(Cl)c1)C(C(=O)c1ccc(O)cc1O)C1OC(=O)c2ccccc21 (stereo not drawn) [Compound 17]
Fold Increase in MxA Expression (MxA promoter): 1.05 fold

Cc1cccc(NC(=O)C(=O)C(C2OC(=O)c3ccccc32)[N+](=O)[O-])c1C (stereo not drawn) [Compound 18]
Fold Increase in MxA Expression (MxA promoter): 0.79 fold

O=c1c2cc(O)ccc2n2nnc3ccc(NCCNCCO)c1c32 [Compound 19]
Fold Increase in MxA Expression (MxA promoter): 2.08 fold

COc1cc(C2C(Cl)C(=O)N2NC(=O)c2ccc(N)cc2)ccc1O (stereo not drawn) [Compound 20]
Fold Increase in MxA Expression (MxA promoter): 1.37 fold

COc1cc(C2C(Cl)C(=O)N2NC(=O)c2ccc(N)cc2)cc(Br)c1O (stereo not drawn) [Compound 21]
Fold Increase in MxA Expression (MxA promoter): 1.64 fold

Cc1c(C(=O)/C=C/c2c(Cl)cccc2Cl)c(=O)n(-c2ccccc2)n1C [Compound 22]
Fold Increase in MxA Expression (MxA promoter): 0.32 fold

CN(CCCn1ccnc1[N+](=O)[O-])CCCn1ccnc1[N+](=O)[O-] [Compound 23]
Fold Increase in MxA Expression (MxA promoter): 1.28 fold

C=[N+](CNC(=O)CNC(=O)C(Cc1ccc([N+](=O)[O-])cc1)NC(=O)OC(C)(C)C)C(=O)CNC(=O)C(Cc1ccc([N+](=O)[O-])cc1)NC(=O)OC(C)(C)C (stereo not drawn) [Compound 24]
Fold Increase in MxA Expression (MxA promoter): 0.84 fold

CC(=O)C1=C(N=[N+]=[N-])c2cccc3cccc(c23)C1=O [Compound 26]
Fold Increase in MxA Expression (MxA promoter): 0.95 fold

O=[N+]([O-])c1ccc(N2N=C(c3ccc4ccccc4c3O)CC2c2ccc(Cl)cc2Cl)c([N+](=O)[O-])c1 (stereo not drawn) [Compound 27]
Fold Increase in MxA Expression (MxA promoter): 2.25 fold

O=C1CC(=O)NC(=NN2C(=O)CSC2c2ccc(Cl)cc2)N1 (stereo not drawn) [Compound 28]
Fold Increase in MxA Expression (MxA promoter): 1.40 fold

CC(C)(Oc1ccc(Cl)cc1)C(=O)N(C(=O)N1CCCCC1)c1ccccc1 [Compound 29]
Fold Increase in MxA Expression (MxA promoter): 1.03 fold

Cc1ccc2c(c1)C=CC1(O2)N(c2ccccc2)C(=S)OC1(C)C (stereo not drawn) [Compound 30]
Fold Increase in MxA Expression (MxA promoter): 0.85 fold

CC1(C)OC(=S)N(c2ccccc2)C12C=Cc1cc3ccccc3cc1O2 (stereo not drawn) [Compound 31]
Fold Increase in MxA Expression (MxA promoter): 0.91 fold

CCN(CC)CCNc1ccc2nnn3c4ccc(OC(C)=O)cc4c(=O)c1c23 [Compound 32]
Fold Increase in MxA Expression (MxA promoter): 2.64 fold

CCOC(=O)[C@@H]1ON2O[C@H](OC3CCCCC3c3ccccc3)C[C@H]3OC(=O)[C@@H]1C32 (stereo partly drawn) [Compound 33]
Fold Increase in MxA Expression (MxA promoter): 1.03 fold

CCOC(=O)c1cccc(NC(=O)CBr)c1 [Compound 34]
Fold Increase in MxA Expression (MxA promoter): 0.27 fold

C=CC[C@H]1[C@H](O[Si](C)(C)C(C)(C)C)C=CC(=O)[C@@H]1CC(=O)OCC [Compound 35]
Fold Increase in MxA Expression (MxA promoter): 0.68 fold

O=C1C(=C(C(=O)c2ccccc2)C(=O)c2ccccc2)OC(c2ccccc2)=C1C(=O)c1ccccc1 [Compound 36]
Fold Increase in MxA Expression (MxA promoter): 1.62 fold

COC1C(O)C(C)OC(CCOC2C(Oc3cccc4c(O)c5c(=O)oc6ccc(C)c7c(=O)oc(c34)c5c67)OC(C)C(O)C2O)C1O (stereo not drawn) [NSC 5159, 10-{3-[2-(3,5-Dihydroxy-4-methoxy-6-methyl-tetrahydro-pyran-2-yl)-ethoxy]-4,5-dihydroxy-6-methyl-tetrahydro-pyran-2-yloxy}-6-hydroxy-1 methyl-benzo[h]chromeno[5,4,3-cde]chromene-5,12-dione]
induction of MxA protein expression (MxA protein [1]): induce expression of MxA protein | motility of PC-3M cells (PC-3M cells): decrease the motility | expression of luciferase from the MxA promoter (MxA promoter): induce expression of luciferase

Cc1cc(Cc2cc(C)c(N)cc2N)c(N)cc1N [NSC 7215, methylene-bis(2,4-amino-5-methyl-benzene)]
induction of MxA protein expression (MxA protein [1]): induce expression of MxA protein | motility of PC-3M cells (PC-3M cells): decrease the motility | expression of luciferase from the MxA promoter (MxA promoter): induce expression of luciferase

O=[N+]([O-])c1ccc(Nc2nc3ccccc3s2)cc1 [NSC 34444, benzothiazol-2-yl-(4-nitro-phenyl)-amine]
expression of luciferase from the MxA promoter (MxA promoter): induce expression of luciferase

COc1ccc2cc(COCCC(=O)O)ccc2c1 [NSC 46669, 3-(6-Methoxy-naphthalen-2-ylmethoxy)-propionic acid]
induction of MxA protein expression (MxA protein [1]): induce expression of MxA protein | motility of PC-3M cells (PC-3M cells): decrease the motility | expression of luciferase from the MxA promoter (MxA promoter): induce expression of luciferase

O=C(O)c1ccc(Oc2nc3ccccc3s2)cc1 [NSC 122335, 4-(benzothiazol-2-yloxy)-benzoic acid]
induction of MxA protein expression (MxA protein [1]): induce expression of MxA protein | motility of PC-3M cells (PC-3M cells): decrease the motility | expression of luciferase from the MxA promoter (MxA promoter): induce expression of luciferase

IFN-α
PC-3M cell motility (PC-3M cells; 1000 IU ml^−1 IFN-α, FIG. 3A): reduced PC-3M cell motility to a level comparable to that of PC-3 cells | level of MxA protein after exposure to IFN-α (MxA protein [2]): increased substantially | level of MxA protein after exposure to IFN-α (MxA protein [3]): became detectable for the first time | PC-3 cell motility (PC-3 cells): reduced its motility to levels below that seen when no IFN was present
